Test results reported in patent US20250352518A1, “A BENZIMIDAZOLE COMPOUND WITH ANTIHELMINTHIC ACTIVITY FOR USE IN REVERSING, ARRESTING OR SLOWING DOWN CELLULAR AGEING IN A VERTEBRATE SUBJECT” (RAVAN BIO LIMITED, priority 2022, published 2025).

Key:
NHEK cells = assay: Population doublings and telomere loss per population doubling of drug-treated NHEK's (qPCR); assay type: cell-based, human; conditions: passage 10 and 11 NHEK's, versus DMSO control, FIG. 8b
Experimental: Sub-confluent passage 2 NHEK's in T75 flasks were cultured in complete KSFM maintained at 5% CO2, 37° C. until ˜80% confluent as described in 1.5. These were subsequently passaged and accurate cell counts determined by Via-1 cassette NC3000 Image Cell Cytometer. An aliquot of 40,000 cells was then seeded into T25 flasks which were incubated for 24 hours in KKSFM at 5% CO2, 37° C. to allow cells to adhere. […] These cultures were then incubated for another 3 days at 5% CO2, 37° C. when confluency was approx 80%. At this point, cells were harvested, Via-1 counts carried out, 50,000 cells pelleted for DNA preparation (DNeasy® Blood & Tissue Kit, Qiagen UK, Cat No 69505) and 40,000 cells seeded into a fresh T-25 flask for each specific drug treatment. The whole procedure was then repeated 8 times until passage 11. Extracted DNA quality and quantity was determined with a QuickDrop DNA Spectrophotometer (Molecular Devices. Model 504 7178) and then this was used to analyse comparative telomere length in each sample by use of a Relative Human Telomerase Length Quantification qPCR Assay Kit (ScienCell™, Cat No 8908) with a Stratagen qPCR/Real Time PCR Machine. Model Mx3005P®. […] Analysis of relative telomere length was carried out on DNA extracted from passages 3-10 in triplicate using a qPCR Assay Kit (ScienCell™, Cat No 8908), according to the manufacturer's instructions.

[1] = Canine case studies: age-related pathologies and tumour observations; assay type: in vivo, dog
Experimental: In 2017, a […] (D.O.B Jan. 5, 2008) female Lhasa Apso/Jack Russell/Shih Tzu cross-breed (confirmed by genetic breed analysis: DNA-My-Dog) with a body mass of 9 Kg, was treated with 0.6 gm/day of 22.2% Fenbendazole (Panacur® granules) which was given orally for 3 consecutive days/week for 1 month and this cycle was repeated every 3rd month giving 4 cycles/annum providing a total of 16×1 month treatment cycles spread over a period of 4 yrs up to the present day.
In 2017, a 4 yr old Jack Russell/Poodle/Maltese cross-breed (Confirmed by genetic breed analysis: DNA-My-Dog) with a body mass of 9.2 Kg was treated with 1.0 gm/day of 22.2% Fenbendazole Panacur® granules for 3 days per week and 4 days without. The dosing schedule of 3 days with, 4 days without treatment per week was continued for 3 months after which the dose was reduced to 0.6 gm/day of Panacur® and treatment alternated between 1 month with and 1 month without for 19 months providing a total of 11×1 month treatment cycles over the whole time period. After this, treatment was discontinued for 2 years and 5 months up to 12 May 2022 when a cheek swab was taken for analysis of biological age and this was repeated 5 months later on the 30 Sep. 2022.
The initial reason for treating this animal was that it had been diagnosed with an anal sac adenocarcinoma and, at the time, it was decided to explore the use of Fenbendazole as an alternative treatment. […] Subject C2B's birth date was May 2014 giving a chronological age of 8 yrs which was verified by microchip implantation date using the Petlog database. Following the outlined treatment with Fenbendazole, in April 2022, a cheek epithelium swab was sent to DNA-My-Dog for assessment of breed composition and biological age by analysis of breed-specific telomere length. The result, returned on the 12 May 2022, reported a biological age of 1 yr old indicating a reduction in biological age of 7 yrs. which is equivalent to ˜90% reduction in biological age. […] After a further gap of 5 months without treatment, on the 30 Sep. […] However, unlike subject C2A, no treatment was given during this period so the most likely explanation is that the efficacy time-limit of the initial treatment has been exceeded.

[2] = Rat 4 month medicated feed study: mortality and appetite; assay type: in vivo, Sprague-Dawley rats
Text: Seventy-eight Sprague-Dawley rats aged either 16 or 22 months were maintained with daily 12-hour light/dark cycles and allowed constant access to feed and water. The animals were bred and housed at the Cantacuzino National Medico-Military Institute for Research and Development, Bucharest 050096, Romania. These animals were split into 3 separate groups of 26, each containing the same number of younger and older animals, which were then given the following feeds prepared by Altromin Spezialfutter GmbH & Co. for a period of 4 months: • (A) Control maintenance feed plus standard multivitamin supplement (No API's) • (B) Formulation (A) plus 80 mg/Kilo of Fenbendazole. • (C) Formulation (B) plus 12.5 mg/Kilo Tadalafil. A buccal swab was then taken from each animal using an OracollectDNA OCR-100 sampling device (DNA Genotek, Canada). DNA was extracted using a DNeasy® Blood & Tissue Kit (Qiagen UK, Cat No 69505) which was checked for purity and quantified with a QuickDrop Spectrophotometer (Molecular Devices, Model 504 7178). This material was then used to analyse relative telomere length as described in section 1.6 except that the Relative Rat Telomere Length Quantification qPCR Assay Kit (ScienCell Research Labs, Catalog No. R8908) was used. Five consecutive samples from each of the three treatment groups were analysed on each 96 well PCR plate to minimize any inter-plate variability.

[3] = Rat 4 month medicated feed study: relative telomere length in buccal swab DNA (qPCR); assay type: in vivo, Sprague-Dawley rats; conditions: buccal swabs after 4 months feed; control 1.37 (SD=0.38)
Text: Seventy-eight Sprague-Dawley rats aged either 16 or 22 months were maintained with daily 12-hour light/dark cycles and allowed constant access to feed and water. The animals were bred and housed at the Cantacuzino National Medico-Military Institute for Research and Development, Bucharest 050096, Romania. […] A buccal swab was then taken from each animal using an OracollectDNA OCR-100 sampling device (DNA Genotek, Canada). DNA was extracted using a DNeasy® Blood & Tissue Kit (Qiagen UK, Cat No 69505) which was checked for purity and quantified with a QuickDrop Spectrophotometer (Molecular Devices, Model 504 7178). […] R8908) was used. Five consecutive samples from each of the three treatment groups were analysed on each 96 well PCR plate to minimize any inter-plate variability.

With `COC(=O)Nc1nc2ccc(Sc3ccccc3)cc2[nH]1` [Fenbendazole, methyl 5-(phenylthio)-2-benzimidazole carbamate] the “relative telomere loss per population doubling” value (NHEK cells) was “greatest reduction”, the “body weight and physical activity” value ([1]; dog C2A, during 4 yr treatment) was “significant weight-loss and increased physical activity” and the growth of teeth ([1]; dog C2A, during 4 yr treatment) was “activation of new growth of teeth”. For the same compound, the “skin conditions / subcutaneous lesions” value ([1]; dog C2A, during 4 yr treatment) was “normalization of skin and regression of subcutaneous lipoma like lesions”, the “persistence of anti-ageing effects after treatment is discontinued” value ([1]; dog C2B) was “at least 2 years” and the “visible signs of ageing” value ([1]; dog C2B) was “does not show any visible signs of ageing”. For the same compound, the “anal sac adenocarcinoma tumour” value ([1]; dog C2B, during treatment) was “regressed”, the appetite versus control ([2]; 4 months medicated feed) was “greater” and the surviving animals ([2]; after 4 months of medicated feed, groups of 26 rats aged 16 or 22 months, control 18) was 23. The mortality ([2]; after 4 months of medicated feed, control 30.7%) was 11.5% and the “average telomere length, times that in DNA from a 30 month old comparator” value [3] was 1.59 (SD=0.48).
